This passage reports GI50 and TGI results from PubChem BioAssay (NCI).

Values joined by “and” are separate entries in the source; they are usually repeats but may differ in a detail not shown here. Equal entries are not always repeated.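 Dose response: 5 concentrations. Exposure: 48 h. Format: 96-well plates. Endpoint: linear interpolation; highest concentration if not reached. GI50: concentration for 50% inhibition of growth. TGI denotes the concentration required for complete inhibition of growth.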

Among the test systems are CCRF-CEM leukemia; EKVX NSCLC; HCT-15 colon; MOLT-4 leukemia; PC-3 prostate; SF-268 CNS; SNB-75 CNS; SW-620 colon; TK-10 renal; UO-31 renal.
What all share (experiment): inhibition of tumour cell growth, NCI panel, 48 h

For the molecule `Cn1c(=O)c2[nH]cnc2n(C)c1=O.[CH2-]C(Cc1cccc2cc(C(=O)O)c(=O)oc12)OC.[Hg+2].[OH-]` (configuration not stated), the GI50 was 3.21 µM in the experiment on CCRF-CEM leukemia; 20.7 µM in the experiment with EKVX NSCLC; 16.6 µM in the experiment with HCT-15 colon; 8.81 µM in the experiment with MOLT-4 leukemia; 18 µM in the experiment on PC-3 prostate; 16.9 µM in the experiment on SF-268 CNS. The GI50 is 17.7 µM in the experiment on SNB-75 CNS, 10.8 µM in the experiment with SW-620 colon, 19.3 µM with TK-10 renal and 16.1 µM with UO-31 renal. In addition, the TGI amounted to 18 µM in the experiment with CCRF-CEM leukemia; 37.4 µM with EKVX NSCLC; 30.9 µM in the experiment on HCT-15 colon; 40.5 µM in the experiment on MOLT-4 leukemia; 31.8 µM in the experiment on PC-3 prostate; 30.6 µM with SF-268 CNS. The TGI was 32.7 µM in the experiment with SNB-75 CNS, 28.7 µM in the experiment with SW-620 colon, 33.4 µM in the experiment on TK-10 renal and 29.8 µM in the experiment on UO-31 renal.
Regarding `C=CC(=O)Nc1cccc(Nc2nc(Nc3ccc(N4CCN(C(C)=O)CC4)cc3OC)ncc2C(F)(F)F)c1`, the GI50 with CCRF-CEM leukemia is 3.62 µM and 4.32 µM; in the experiment on EKVX NSCLC, 1.36 µM and 1.68 µM; in the experiment with HCT-15 colon, 3.06 µM and 2.94 µM; with MOLT-4 leukemia, 5.47 µM and 4.04 µM; in the experiment with PC-3 prostate, 9.75 µM and 4.73 µM; in the experiment on SF-268 CNS it was 5.29 µM and 3.19 µM. Moreover, the GI50 is 5.18 µM and 2.47 µM with SNB-75 CNS; 3.07 µM and 2.29 µM with SW-620 colon; 0.32 µM and 0.441 µM with TK-10 renal; 2.05 µM and 1.76 µM in the experiment on UO-31 renal. Moreover, the TGI in the experiment on CCRF-CEM leukemia is over 65.5 µM; in the experiment on EKVX NSCLC, > 10 µM and 12.4 µM; in the experiment with HCT-15 colon it was > 10 µM and 13.8 µM; in the experiment with MOLT-4 leukemia, over 58.5 µM; in the experiment with PC-3 prostate, > 10 µM and 27.7 µM; in the experiment on SF-268 CNS it was > 10 µM and 26.2 µM. Further, the TGI is > 10 µM and 15.3 µM in the experiment with SNB-75 CNS; > 10 µM and 12.7 µM in the experiment with SW-620 colon; 2.16 µM and 4.03 µM in the experiment with TK-10 renal; over 68.6 µM with UO-31 renal.
`COC(=O)[C@]1(C)CC[C@]2(C)CC[C@]3(C)C(=CC(=O)[C@@H]4[C@@]5(C)CCC(=O)NC(C)(C)[C@@H]5CC[C@]43C)[C@@H]2C1`: the GI50 with CCRF-CEM leukemia is 15.1 µM; in the experiment with EKVX NSCLC it was 25.5 µM; in the experiment with HCT-15 colon, 16.1 µM; in the experiment on MOLT-4 leukemia, 10.5 µM; in the experiment on PC-3 prostate, 4.69 µM; in the experiment with SF-268 CNS, 28.2 µM. The GI50 in the experiment on SNB-75 CNS is 25.5 µM; in the experiment with SW-620 colon, 27.3 µM; in the experiment with TK-10 renal, 40.2 µM; in the experiment with UO-31 renal, 16.9 µM. Moreover, the TGI was 44.6 µM in the experiment with CCRF-CEM leukemia; over 100 µM in the experiment on EKVX NSCLC; over 100 µM in the experiment on HCT-15 colon; 31.6 µM in the experiment with MOLT-4 leukemia; 21.3 µM in the experiment with PC-3 prostate; over 100 µM in the experiment with SF-268 CNS. For the same molecule, the TGI was over 100 µM with SNB-75 CNS, over 100 µM in the experiment on SW-620 colon, over 100 µM with TK-10 renal and 33.3 µM with UO-31 renal.
Turning to `CC(=O)N1c2ccc(-c3ccc(C(=O)O)cc3)cc2[C@H](Nc2ccc(Cl)cc2)C[C@@H]1C`, the GI50 in the experiment with CCRF-CEM leukemia was 1.63 µM; in the experiment with EKVX NSCLC it was 0.452 µM; in the experiment with HCT-15 colon, 0.0613 µM; in the experiment on MOLT-4 leukemia, 1.79 µM; in the experiment with PC-3 prostate it was 1.24 µM; in the experiment with SF-268 CNS, 5.76 µM. The GI50 in the experiment on SNB-75 CNS was under 0.0165 µM; with SW-620 colon it was 11.1 µM; in the experiment with TK-10 renal it was 0.0569 µM; with UO-31 renal, under 0.0251 µM. The TGI in the experiment with CCRF-CEM leukemia was 30.3 µM; in the experiment on EKVX NSCLC it was over 64 µM; with HCT-15 colon it was 13.5 µM; with MOLT-4 leukemia, 39.2 µM; with PC-3 prostate it was 28.7 µM; in the experiment on SF-268 CNS it was over 90.9 µM. The TGI was over 100 µM with SNB-75 CNS, over 62 µM with SW-620 colon, 17.9 µM in the experiment with TK-10 renal and 13 µM in the experiment with UO-31 renal.
`COc1ccc2c(c1)NC(=O)CN2c1nc(C)nc2ccccc12`: the GI50 is 0.000551 µM in the experiment on CCRF-CEM leukemia; 0.000413 µM in the experiment with HCT-15 colon; 0.000605 µM in the experiment with MOLT-4 leukemia; 0.000636 µM in the experiment on PC-3 prostate; 0.000788 µM in the experiment with SF-268 CNS; 0.00036 µM in the experiment on SNB-75 CNS. Further, in the experiment with SW-620 colon, the GI50 was 0.000487 µM. In addition, the TGI with CCRF-CEM leukemia, in the experiment with EKVX NSCLC, in the experiment on HCT-15 colon, with MOLT-4 leukemia, in the experiment on PC-3 prostate and in the experiment on SF-268 CNS was over 100 µM in each case. In addition, the TGI with SNB-75 CNS, with SW-620 colon, with TK-10 renal and in the experiment with UO-31 renal was over 100 µM throughout.
In the case of `CC1CC2(C)CC(=O)C1C1C(=O)N(CCN3CCOCC3)C(=O)C12` (configuration not stated), the GI50 with CCRF-CEM leukemia, with EKVX NSCLC, with HCT-15 colon, in the experiment with MOLT-4 leukemia, in the experiment on PC-3 prostate and with SF-268 CNS was over 100 µM throughout. Also, the GI50 in the experiment with SNB-75 CNS, with SW-620 colon, in the experiment on TK-10 renal and in the experiment on UO-31 renal was over 100 µM in each case. Further, the TGI in the experiment on CCRF-CEM leukemia, with EKVX NSCLC, with HCT-15 colon, in the experiment with MOLT-4 leukemia, with PC-3 prostate and with SF-268 CNS was over 100 µM throughout. The TGI in the experiment with SNB-75 CNS, with SW-620 colon, with TK-10 renal and in the experiment with UO-31 renal was over 100 µM in each case.
On to `COC(=O)CCc1c(/C=C2\N=C(c3ccc[nH]3)C=C2OC)[nH]c(C)c1C(=O)OCc1ccccc1`, for which the GI50 was 0.0933 µM in the experiment on CCRF-CEM leukemia; 0.733 µM in the experiment on EKVX NSCLC; 0.177 µM in the experiment on HCT-15 colon; 0.23 µM in the experiment on MOLT-4 leukemia; 0.228 µM in the experiment with PC-3 prostate; 0.514 µM in the experiment with SF-268 CNS. Besides, the GI50 is 0.315 µM with SNB-75 CNS, 0.304 µM in the experiment on SW-620 colon, 0.873 µM with TK-10 renal and 0.155 µM with UO-31 renal. The TGI in the experiment with CCRF-CEM leukemia was over 58 µM; in the experiment on EKVX NSCLC, 5.29 µM; in the experiment on HCT-15 colon, 1.53 µM; in the experiment on MOLT-4 leukemia it was 5.1 µM; in the experiment on PC-3 prostate, over 37.6 µM; with SF-268 CNS, 8.23 µM. Also, the TGI in the experiment on SNB-75 CNS was determined as 1.8 µM; with SW-620 colon, 3.03 µM; in the experiment with TK-10 renal, 7.05 µM; in the experiment on UO-31 renal, 0.359 µM.
As to `COc1ccc(-c2cc3c(N)ncnc3o2)cc1`, the GI50 is over 25 µM with CCRF-CEM leukemia; 3.59 µM in the experiment with EKVX NSCLC; over 25 µM in the experiment on HCT-15 colon; over 25 µM with MOLT-4 leukemia; over 25 µM with PC-3 prostate; 21.3 µM with SF-268 CNS. For the same molecule, the GI50 in the experiment with SNB-75 CNS was 24.9 µM; in the experiment on SW-620 colon, over 25 µM; in the experiment on TK-10 renal, 9.44 µM; with UO-31 renal, 12.4 µM. Besides, the TGI with CCRF-CEM leukemia, in the experiment with EKVX NSCLC, in the experiment on HCT-15 colon, in the experiment with MOLT-4 leukemia, with PC-3 prostate and in the experiment on SF-268 CNS was over 25 µM in each case. The TGI with SNB-75 CNS, with SW-620 colon, in the experiment with TK-10 renal and in the experiment with UO-31 renal was over 25 µM throughout.
Turning to `CCCCCCCCC(=O)NCCN(CCN)C(=O)CCCCCCCC`, the TGI in the experiment with CCRF-CEM leukemia amounted to 8.19 µM; in the experiment with EKVX NSCLC it was 36.2 µM; in the experiment with HCT-15 colon, 10.3 µM; in the experiment with MOLT-4 leukemia, 8.57 µM; in the experiment on PC-3 prostate, 25 µM; in the experiment with SF-268 CNS, 17.5 µM. The TGI with SNB-75 CNS was found to be 15.2 µM; in the experiment on SW-620 colon, 6.31 µM; in the experiment on TK-10 renal it was 30 µM; in the experiment on UO-31 renal it was 26.6 µM.
Consider `CC1SC(c2cccc(Cl)c2)N(NC(=O)C(O)c2ccccc2)C1=O` (configuration not stated), for which the GI50 in the experiment on CCRF-CEM leukemia, with EKVX NSCLC, with HCT-15 colon, with MOLT-4 leukemia, with PC-3 prostate and in the experiment on SF-268 CNS was over 100 µM each time. Also, the GI50 in the experiment with SNB-75 CNS is 79.1 µM; in the experiment on SW-620 colon, over 100 µM; in the experiment with TK-10 renal, over 100 µM; in the experiment with UO-31 renal it was over 100 µM. For the same molecule, the TGI in the experiment on CCRF-CEM leukemia, in the experiment with EKVX NSCLC, in the experiment with HCT-15 colon, in the experiment with MOLT-4 leukemia, in the experiment on PC-3 prostate and with SF-268 CNS was over 100 µM in each case. The TGI in the experiment with SNB-75 CNS, in the experiment on SW-620 colon, in the experiment with TK-10 renal and in the experiment with UO-31 renal was over 100 µM throughout.
As to `CCCCCCCCCCCCCCCC(N)c1ccccc1` (configuration not stated), the GI50 was 1.98 µM with CCRF-CEM leukemia; 1.59 µM in the experiment with EKVX NSCLC; 1.67 µM in the experiment with HCT-15 colon; 1.58 µM in the experiment on MOLT-4 leukemia; 1.67 µM with PC-3 prostate; 1.63 µM with SF-268 CNS. Besides, the GI50 with SNB-75 CNS is 1.27 µM; in the experiment on SW-620 colon, 1.61 µM; in the experiment with TK-10 renal, 1.61 µM; in the experiment with UO-31 renal, 1.49 µM. The TGI came to 4.33 µM in the experiment with CCRF-CEM leukemia; 3.01 µM in the experiment with EKVX NSCLC; 3.09 µM in the experiment with HCT-15 colon; 3.42 µM with MOLT-4 leukemia; 3.26 µM in the experiment with PC-3 prostate; 3.26 µM in the experiment with SF-268 CNS. Also, the TGI amounted to 2.88 µM in the experiment on SNB-75 CNS, 3.19 µM with SW-620 colon, 3.1 µM in the experiment on TK-10 renal and 2.97 µM with UO-31 renal.
